Data: PMC10793102 (Acta Pharmaceutica Sinica. B, 2023)
Like-named read-outs stand apart in the source and are kept apart here.

Key:
[1] = system: FADD−/− Jurkat; test: Cell viability assay, protection from necroptosis in FADD−/− Jurkat cells; type: cell-based; settings: Homo sapiens, 16 h
[2] = system: L929; test: Cell viability assay, protection from necroptosis in L929 cells; type: cell-based, mouse; settings: for EC50: Mus musculus, L929, 16 h; for protective effects against cell death of L929 cells induced by TNFα: TNFα 40 ng/mL, 15 h, Fig. 2A
[3] = system: phosphorylation of RIPK1, RIPK3 and MLKL; test: Western blotting of necroptosis pathway in stimulated HT-29 cells; type: cell-based, human; settings: compounds at 5 μmol/L, 4 h
[4] = Metabolic stability in mouse liver microsomes; type: in vitro ADME
[5] = Metabolic stability in human liver microsomes; type: in vitro ADME
[6] = PK study in mice; type: in vivo; settings: male, ICR, mouse, plasma
[7] = target: T1, hRIPK1 (Homo sapiens, UniProt Q13546); test: In vitro RIPK1 kinase activity assay; type: biochemical; settings: Enzymatic IC50s RIPK1, hRIPK1 enzymatic assay
T1 sequence (Q13546 1-671): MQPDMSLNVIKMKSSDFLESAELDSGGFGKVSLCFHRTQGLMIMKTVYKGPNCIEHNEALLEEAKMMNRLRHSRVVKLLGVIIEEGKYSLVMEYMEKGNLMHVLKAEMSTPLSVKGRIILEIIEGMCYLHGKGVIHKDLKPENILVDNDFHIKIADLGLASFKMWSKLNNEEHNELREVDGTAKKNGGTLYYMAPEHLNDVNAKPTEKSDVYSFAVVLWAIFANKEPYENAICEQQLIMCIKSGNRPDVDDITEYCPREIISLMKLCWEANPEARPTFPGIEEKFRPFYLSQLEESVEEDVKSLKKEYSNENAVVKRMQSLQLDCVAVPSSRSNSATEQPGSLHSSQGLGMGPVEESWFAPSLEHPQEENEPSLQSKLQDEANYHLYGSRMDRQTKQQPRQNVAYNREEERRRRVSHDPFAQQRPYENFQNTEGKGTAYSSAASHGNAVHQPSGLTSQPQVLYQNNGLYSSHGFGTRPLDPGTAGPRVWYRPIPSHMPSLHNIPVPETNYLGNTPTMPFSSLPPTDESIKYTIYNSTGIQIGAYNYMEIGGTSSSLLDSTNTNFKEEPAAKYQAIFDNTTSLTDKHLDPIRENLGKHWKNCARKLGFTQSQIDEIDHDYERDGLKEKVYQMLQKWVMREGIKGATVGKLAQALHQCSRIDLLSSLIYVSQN

[8] = target: hRIPK3 (Homo sapiens, UniProt Q9Y572); test: In vitro RIPK3 kinase activity assay; type: biochemical
hRIPK3, sequence (Q9Y572 whole entry): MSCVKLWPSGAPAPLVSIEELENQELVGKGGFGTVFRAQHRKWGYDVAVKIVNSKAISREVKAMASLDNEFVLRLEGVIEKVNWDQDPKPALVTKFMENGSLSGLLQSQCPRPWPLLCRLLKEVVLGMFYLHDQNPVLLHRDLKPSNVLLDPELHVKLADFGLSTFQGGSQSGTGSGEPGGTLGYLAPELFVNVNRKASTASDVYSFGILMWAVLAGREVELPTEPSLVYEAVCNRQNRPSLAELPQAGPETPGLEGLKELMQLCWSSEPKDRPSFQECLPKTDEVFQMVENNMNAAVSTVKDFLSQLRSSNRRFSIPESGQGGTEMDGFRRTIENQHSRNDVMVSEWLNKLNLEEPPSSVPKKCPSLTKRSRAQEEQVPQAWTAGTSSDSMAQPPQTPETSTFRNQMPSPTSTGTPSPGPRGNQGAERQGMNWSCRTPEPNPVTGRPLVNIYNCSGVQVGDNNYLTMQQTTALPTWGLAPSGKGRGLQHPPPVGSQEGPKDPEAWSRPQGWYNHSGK

[9] = Cytotoxicity at high concentrations in cell viability assays; type: cell-based
[10] = read-out: EC50 FADD−/− Jurkat T + S
[11] = read-out: EC50 FADD−/− Jurkat TNFα

`CCN1CCN(Cc2ccc(NC(=O)Cc3ccc(-n4cnc5cc(C(=O)NC)ccc54)cc3)cc2C(F)(F)F)CC1` [compound 11] gave an EC50 [1, 10] of over 10000 nM, an EC50 [1, 11] of over 10000 nM and an EC50 ([2]; read-out: EC50 L929 T + S) of 713 nM. For the same compound, the EC50 ([2]; read-out: EC50 L929 TNFα) was 190 nM, the “protective effects against cell death of L929 cells induced by TNFα” value [2] was “protective effects similar to 10” and the “phosphorylation of RIPK1 (Western blot)” value [3] was “diminished the phosphorylation of the upstream effector RIPK1”. For the same compound, the “phosphorylation of RIPK3 and MLKL (Western blot)” value [3] was “comparably diminished the phosphorylation of RIPK3 and the downstream MLKL”.
In the case of `CCN1CCN(Cc2ccc(NC(=O)Nc3ccc(-n4cnc5cc(C(=O)NC)ccc54)cc3)cc2C(F)(F)F)CC1` [compound 12], the “protective effects against cell death of L929 cells induced by TNFα” value [2] is reported as “protective effects similar to 10”, the “phosphorylation of RIPK1 (Western blot)” value [3] is reported as “diminished the phosphorylation of the upstream effector RIPK1” and the “phosphorylation of RIPK3 and MLKL (Western blot)” value [3] is reported as “comparably diminished the phosphorylation of RIPK3 and the downstream MLKL”.
For `CNC(=O)c1ccc2c(c1)ncn2-c1ccc(CNC(=O)c2cc(Cc3ccccc3)n(C)n2)cc1` [compound 20, 1-(4-((5-Benzyl-1-methyl-1H-pyrazole-3-carboxamido)methyl)phenyl)-N-methyl-1H-benzo[d]imidazole-5-carboxamide], the half-life [4] was about 40 min, the EC50 [1, 10] was 44 nM and the EC50 [1, 11] was 5.1 nM. The EC50 ([2]; read-out: EC50 L929 TNFα) was 312 nM and the half-life [5] was about 40 min.
For `CNC(=O)c1ccc2c(c1)ncn2-c1ccc(CNC(=O)c2cnn(C)c2Cc2ccccc2)cc1` [compound 27], the half-life [4] was about 40 min, the EC50 [1, 10] was 5.2 nM and the EC50 [1, 11] was 0.5 nM. It also gave an EC50 ([2]; read-out: EC50 L929 T + S) of 77 nM, an EC50 ([2]; read-out: EC50 L929 TNFα) of 20 nM and a half-life [5] of about 40 min.
Compound `Cn1nc(Cl)c(C(=O)NCc2ccc(-n3cnc4c(N)ncnc43)cc2)c1Cc1ccccc1` [compound 48, N-(4-(6-Amino-9H-purin-9-yl)benzyl)-5-benzyl-3-chloro-1-methyl-1H-pyrazole-4-carboxamide] has an EC50 [1, 10] of 0.7 nM, an EC50 [1, 11] of 0.2 nM and an AUC(0-inf) ([6]; iv, 1 mg/kg) of 1310 ng·h/mL. It also gave an AUC(0-t) ([6]; iv, 1 mg/kg) of 1300 ng·h/mL, an MRT inf ([6]; iv, 1 mg/kg) of 118 min and a Vd ([6]; iv, 1 mg/kg) of 1.55 L/kg. It also gave a clearance ([6]; iv, 1 mg/kg) of 13.3 mL/min/kg, a half-life ([6]; iv, 1 mg/kg) of 48.6 min and an AUC(0-inf) ([6]; po, 10 mg/kg) of 8400 ng·h/mL. For the same compound, the AUC(0-t) ([6]; po, 10 mg/kg) was 8280 ng·h/mL, the Cmax ([6]; po, 10 mg/kg) was 3050 ng/mL and the MRT inf ([6]; po, 10 mg/kg) was 243 min. The Tmax ([6]; po, 10 mg/kg) was 25.2 min, the bioavailability ([6]; po, 10 mg/kg) was 63.9% and the half-life ([6]; po, 10 mg/kg) was 83.4 min. It also gave an EC50 ([2]; read-out: EC50 L929 T + S) of 4.6 nM and an EC50 ([2]; read-out: EC50 L929 TNFα) of 0.5 nM.
With `C[C@H](NC(=O)c1cnn(C)c1Cc1ccccc1)c1ccc(-n2cnc3c(N)ncnc32)cc1` [compound 54, (S)-N-(1-(4-(6-Amino-9H-purin-9-yl)phenyl)ethyl)-5-benzyl-1-methyl-1H-pyrazole-4-carboxamide] the IC50 [7] was about 6 nM, the EC50 [1, 10] was 0.3 nM and the EC50 [1, 11] was 0.08 nM. The IC50 [8] was over 1000 nM, the AUC(0-inf) ([6]; iv, 1 mg/kg) was 672 ng·h/mL and the AUC(0-t) ([6]; iv, 1 mg/kg) was 659 ng·h/mL. For the same compound, the MRT inf ([6]; iv, 1 mg/kg) was 119 min, the Vd ([6]; iv, 1 mg/kg) was 2.98 L/kg and the clearance ([6]; iv, 1 mg/kg) was 25 mL/min/kg. The half-life ([6]; iv, 1 mg/kg) was 26.4 min, the AUC(0-inf) ([6]; po, 10 mg/kg) was 2480 ng·h/mL and the AUC(0-t) ([6]; po, 10 mg/kg) was 2440 ng·h/mL. The Cmax ([6]; po, 10 mg/kg) was 1200 ng/mL, the MRT inf ([6]; po, 10 mg/kg) was 183 min and the Tmax ([6]; po, 10 mg/kg) was 30 min. For the same compound, the bioavailability ([6]; po, 10 mg/kg) was 37%, the half-life ([6]; po, 10 mg/kg) was 54 min and the EC50 ([2]; read-out: EC50 L929 T + S) was 0.6 nM. It also gave an EC50 ([2]; read-out: EC50 L929 TNFα) of 0.4 nM.
In the case of `C[C@H](NC(=O)c1c(Cl)nn(C)c1Cc1ccccc1)c1ccc(-n2cnc3c(N)ncnc32)cc1` [compound 57], the “cytotoxicity at high concentrations” value [9] is reported as “increased cytotoxicity at higher concentrations”, the EC50 [1, 10] is reported as 0.3 nM and the EC50 [1, 11] is reported as 0.09 nM. For the same compound, the EC50 ([2]; read-out: EC50 L929 T + S) was 0.4 nM and the EC50 ([2]; read-out: EC50 L929 TNFα) was 0.3 nM.
With `C[C@H](NC(=O)c1nnn(C)c1Cc1ccccc1)c1ccc(-n2cnc3c(N)ncnc32)cc1` [compound 58] the “cytotoxicity at high concentrations” value [9] was “increased cytotoxicity at higher concentrations”, the EC50 [1, 10] was under 0.01 nM and the EC50 [1, 11] was under 0.01 nM. For the same compound, the EC50 ([2]; read-out: EC50 L929 T + S) was under 0.01 nM and the EC50 ([2]; read-out: EC50 L929 TNFα) was under 0.01 nM.
`Cn1nc2c(c1Cc1ccccc1)C(=O)N(Cc1ccc(-n3cnc4c(N)ncnc43)cc1)C2` [compound 60] showed an EC50 [1, 10] of 2.9 nM, an EC50 [1, 11] of 0.05 nM and an EC50 ([2]; read-out: EC50 L929 T + S) of 116 nM. The EC50 ([2]; read-out: EC50 L929 TNFα) was 4.8 nM.
